In patent EP2955182A1, “Pyridazinones for the treatment of cancer” (Max-Planck-Gesellschaft zur Förderung der Wissenschaften …, priority 2014, dated 2015):

biological target: PDEδ (Homo sapiens, UniProt O43924); assay: Fluorescence polarization competition binding assay (displacement titration of labeled Atorvastatin-probe); settings: not given
Text: Example C.2: Displacement titrations of labeled Atorvastatin-probe for the determination of KD values:
Table 3. KD values for compounds of general formula (I) as determined by means of fluorescence polarization assay

Compound	Kd [nM]
Cc1ccc(-n2nc3c(=O)n(CCCC(=O)NCc4ccccc4)nc(C)c3c2C)cc1 [Compound 42]	< 30

same assay, conditions: fluorescence polarization assay, displacement of fluorescent-tagged Atorvastatin analog from PDEδ

Compound	Kd [nM]
Cc1c(Cl)cccc1NC(=O)CCCn1nc(C)c2c(C)n(-c3ccccc3)nc2c1=O [Compound 29, N-(3-chloro-2-methylphenyl)-4-(3,4-dimethyl-7-oxo-2-phenyl-2H-pyrazolo[3,4-d]pyridazin-6(7H)-yl)butanamide]	< 30

same assay, conditions: fluorescence polarization assay, displacement of fluorescent-tagged Atorvastatin analog from PDEδ; read-out: KD

Compound	Kd [nM]
Cc1ccc(-c2noc(CCCn3c(C)c4cnn(-c5ccccc5)c(=O)c4c3C)n2)cc1 [Compound 17, 5,7-dimethyl-2-phenyl-6-(3-(3-(p-tolyl)-1,2,4-oxadiazol-5-yl)propyl)-2,6-dihydro-1H-pyrrolo[3,4-d]pyridazin-1-one]	> 1000
COc1ccc(-c2noc(CCCn3c(C)c4cnn(-c5ccccc5)c(=O)c4c3C)n2)cc1 [Compound 18, 6-(3-(3-(4-methoxyphenyl)-1,2,4-oxadiazol-5-yl)propyl)-5,7-dimethyl-2-phenyl-2,6-dihydro-1H-pyrrolo[3,4-d]pyridazin-1-one]	> 1000
COc1ccc(OC)c(-c2noc(CCCn3c(C)c4cnn(-c5ccccc5)c(=O)c4c3C)n2)c1 [Compound 19, 6-(3-(3-(2,5-dimethoxyphenyl)-1,2,4-oxadiazol-5-yl)propyl)-5,7-dimethyl-2-phenyl-2,6-dihydro-1H-pyrrolo[3,4-d]pyridazin-1-one]	> 1000
Cc1c2cnn(-c3ccccc3)c(=O)c2c(C)n1CCCc1nc(-c2ccc(C(F)(F)F)cc2)no1 [Compound 20, 5,7-dimethyl-2-phenyl-6-(3-(3-(4-(trifluoromethyl)phenyl)-1,2,4-oxadiazol-5-yl)propyl)-2,6-dihydro-1H-pyrrolo[3,4-d]pyridazin-1-one]	> 1000
Cc1c2cnn(-c3ccccc3)c(=O)c2c(C)n1CCCc1nc(-c2ccc(F)cc2)no1 [Compound 21, 6-(3-(3-(4-fluorophenyl)-1,2,4-oxadiazol-5-yl)propyl)-5,7-dimethyl-2-phenyl-2,6-dihydro-1H-pyrrolo[3,4-d]pyridazin-1-one]	100 to 1000
Cc1c2cnn(-c3ccccc3)c(=O)c2c(C)n1CCCc1nnc(-c2ccccc2)o1 [Compound 22, 5,7-dimethyl-2-phenyl-6-(3-(5-phenyl-1,3,4-oxadiazol-2-yl)propyl)-2,6-dihydro-1H-pyrrolo[3.4-d]pyridazin-1-one]	100 to 1000
Cc1ccc(-c2nnc(CCCn3c(C)c4cnn(-c5ccccc5)c(=O)c4c3C)o2)cc1 [Compound 23, 5,7-dimethyl-2-phenyl-6-(3-(5-(p-tolyl)-1,3,4-oxadiazol-2-yl)propyl)-2,6-dihydro-1H-pyrrolo[3,4-d]pyridazin-1-one]	> 1000
COc1ccc(-c2nnc(CCCn3c(C)c4cnn(-c5ccccc5)c(=O)c4c3C)o2)cc1 [Compound 24, 6-(3-(5-(4-methoxyphenyl)-1,3,4-oxadiazol-2-yl)propyl)-5,7-dimethyl-2-phenyl-2,6-dihydro-1H-pyrrolo[3,4-d]pyridazin-1-one]	> 1000
COc1ccccc1-c1nnc(CCCn2c(C)c3cnn(-c4ccccc4)c(=O)c3c2C)o1 [Compound 25, 6-(3-(5-(2-methoxyphenyl)-1,3,4-oxadiazol-2-yl)propyl)-5,7-dimethyl-2-phenyl-2,6-dihydro-1H-pyrrolo[3,4-d]pyridazin-1-one]	100 to 1000
Cc1c2cnn(-c3ccccc3)c(=O)c2c(C)n1CCCc1nnc(-c2ccc(C(F)(F)F)cc2)o1 [Compound 26, 5,7-dimethyl-2-phenyl-6-(3-(5-(4-(trifluoromethyl)phenyl)-1,3,4-oxadiazol-2-yl)propyl)-2,6-dihydro-1H-pyrrolo[3,4-d]pyridazin-1-one]	100 to 1000
Cc1c2cnn(-c3ccccc3)c(=O)c2c(C)n1CCCc1nnc(-c2ccc(F)cc2)o1 [Compound 27, 6-(3-(5-(4-fluorophenyl)-1,3,4-oxadiazol-2-yl)propyl)-5,7-dimethyl-2-phenyl-2,6-dihydro-1H-pyrrolo[3,4-d]pyridazin-1-one]	100 to 1000
Cc1c2cnn(-c3ccccc3)c(=O)c2c(C)n1CCCc1nnc(-c2ccncc2)o1 [Compound 28, 5,7-dimethyl-2-phenyl-6-(3-(5-(pyridin-4-yl)-1,3,4-oxadiazol-2-yl)propyl)-2,6-dihydro-1H-pyrrolo[3,4-d]pyridazin-1-one]	> 1000
Cc1ccc(-n2nc3c(=O)n(CCCC(=O)NCc4ccccn4)nc(C)c3c2C)cc1 [Compound 40, 4-(3,4-dimethyl-7-oxo-2-(p-tolyl)-2H-pyrazolo[3,4-d]pyridazin-6(7H)-yl)-N-(pyridin-2-ylmethyl)butanamide]	100 to 1000
Cc1ccc(-n2nc3c(=O)n(CCCC(=O)NCc4cccnc4)nc(C)c3c2C)cc1 [Compound 41, 4-(3,4-dimethyl-7-oxo-2-(p-tolyl)-2H-pyrazolo[3,4-d]pyridazin-6(7H)-yl)-N-(pyridin-3-ylmethyl)butanamide]	100 to 1000
Cc1ccc(-n2nc3c(=O)n(CCCC(=O)NC4CC4)nc(C)c3c2C)cc1 [Compound 51, N-cyclopropyl-4-(3,4-dimethyl-7-oxo-2-(p-tolyl)-2H-pyrazolo[3,4-d]pyridazin-6(7H)-yl)butanamide]	100 to 1000

More lines, now with the values ahead:

Kd [nM]	Compound
100 to 1000	Cc1c2cnn(-c3ccccc3)c(=O)c2c(C)n1CCCc1nc(-c2ccccc2)no1 [Compound 16, 5,7-dimethyl-2-phenyl-6-(3-(3-phenyl-1,2,4-oxadiazol-5-yl)propyl)-2,6-dihydro-1H-pyrrolo[3,4-d]pyridazin-1-one]
30 to 100	Cc1nn(CCCC(=O)NCc2ccco2)c(=O)c2nn(-c3ccccc3)c(C)c12 [Compound 30, 4-(3,4-dimethyl-7-oxo-2-phenyl-2H-pyrazolo[3,4-d]pyridazin-6(7H)-yl)-N-(furan-2-ylmethyl)butanamide]
30 to 100	Cc1nn(CCCC(=O)NCc2ccccc2)c(=O)c2nn(-c3ccccc3)c(C)c12 [Compound 31, N-benzyl-4-(3,4-dimethyl-7-oxo-2-phenyl-2H-pyrazolo[3,4-d]pyridazin-6(7H)-yl)butanamide]
30 to 100	COc1ccc(CNC(=O)CCCn2nc(C)c3c(C)n(-c4ccccc4)nc3c2=O)cc1 [Compound 32, 4-(3,4-dimethyl-7-oxo-2-phenyl-2H-pyrazolo[3,4-d]pyridazin-6(7H)-yl)-N-(4-methoxybenzyl)butanamide]
30 to 100	COc1cccc(CNC(=O)CCCn2nc(C)c3c(C)n(-c4ccccc4)nc3c2=O)c1 [Compound 33, 4-(3,4-dimethyl-7-oxo-2-phenyl-2H-pyrazolo[3,4-d]pyridazin-6(7H)-yl)-N-(3-methoxybenzyl)butanamide]
30 to 100	COc1ccccc1CNC(=O)CCCn1nc(C)c2c(C)n(-c3ccccc3)nc2c1=O [Compound 34, 4-(3,4-dimethyl-7-oxo-2-phenyl-2H-pyrazolo[3,4-d]pyridazin-6(7H)-yl)-N-(2-methoxybenzyl)butanamide]
30 to 100	Cc1ccc(CNC(=O)CCCn2nc(C)c3c(C)n(-c4ccccc4)nc3c2=O)cc1 [Compound 35, 4-(3,4-dimethyl-7-oxo-2-phenyl-2H-pyrazolo[3,4-d]pyridazin-6(7H)-yl)-N-(4-methylbenzyl)butanamide]
< 30	Cc1nn(CCCC(=O)NCCc2ccccc2)c(=O)c2nn(-c3ccccc3)c(C)c12 [Compound 36, 4-(3,4-dimethyl-7-oxo-2-phenyl-2H-pyrazolo[3,4-d]pyridazin-6(7H)-yl)-N-phenethylbutanamide]
< 30	Cc1ccc(CCNC(=O)CCCn2nc(C)c3c(C)n(-c4ccccc4)nc3c2=O)cc1 [Compound 37, 4-(3,4-dimethyl-7-oxo-2-phenyl-2H-pyrazolo[3,4-d]pyridazin-6(7H)-yl)-N-(4-methylphenethyl)butanamide]
30 to 100	Cc1ccc(-n2nc3c(=O)n(CCCC(=O)NCc4ccco4)nc(C)c3c2C)cc1 [Compound 38, 4-(3,4-dimethyl-7-oxo-2-(p-tolyl)-2H-pyrazolo[3,4-d]pyridazin-6(7H)-yl)-N-(furan-2-ylmethyl)butanamide]
30 to 100	Cc1ccc(-n2nc3c(=O)n(CCCC(=O)NCC4CCCO4)nc(C)c3c2C)cc1 (centres unmarked) [Compound 39, 4-(3,4-dimethyl-7-oxo-2-(p-tolyl)-2H-pyrazolo[3,4-d]pyridazin-6(7H)-yl)-N-((tetrahydrofuran-2-yl)methyl)butanamide]
< 30	COc1ccc(CNC(=O)CCCn2nc(C)c3c(C)n(-c4ccc(C)cc4)nc3c2=O)cc1 [Compound 43, 4-(3,4-dimethyl-7-oxo-2-(p-tolyl)-2H-pyrazolo[3,4-d]pyridazin-6(7H)-yl)-N-(4-methoxybenzyl)butanamide]
< 30	Cc1ccc(CNC(=O)CCCn2nc(C)c3c(C)n(-c4ccc(C)cc4)nc3c2=O)cc1 [Compound 44, 4-(3,4-dimethyl-7-oxo-2-(p-tolyl)-2H-pyrazolo[3,4-d]pyridazin-6(7H)-yl)-N-(4-methylbenzyl)butanamide]
< 30	Cc1ccc(-n2nc3c(=O)n(CCCC(=O)NCc4ccc(OC(C)C)cc4)nc(C)c3c2C)cc1 [Compound 45]
< 30	Cc1ccc(-n2nc3c(=O)n(CCCC(=O)NCCc4ccccc4)nc(C)c3c2C)cc1 [Compound 46, 4-(3,4-dimethyl-7-oxo-2-(p-tolyl)-2H-pyrazolo[3,4-d]pyridazin-6(7H)-yl)-N-phenethylbutanamide]
< 30	Cc1ccc(CCNC(=O)CCCn2nc(C)c3c(C)n(-c4ccc(C)cc4)nc3c2=O)cc1 [Compound 47, 4-(3,4-dimethyl-7-oxo-2-(p-tolyl)-2H-pyrazolo[3,4-d]pyridazin-6(7H)-yl)-N-(4-methylphenethyl)butanamide]
< 30	Cc1ccc(-n2nc3c(=O)n(CCCC(=O)NCCc4ccc(Cl)cc4)nc(C)c3c2C)cc1 [Compound 48, N-(4-chlorophenethyl)-4-(3,4-dimethyl-7-oxo-2-(p-tolyl)-2H-pyrazolo[3,4-d]pyridazin-6(7H)-yl)butanamide]
< 30	Cc1ccc(-n2nc3c(=O)n(CCCC(=O)NCCc4cccc(Cl)c4)nc(C)c3c2C)cc1 [Compound 49, N-(3-chlorophenethyl)-4-(3,4-dimethyl-7-oxo-2-(p-tolyl)-2H-pyrazolo[3,4-d]pyridazin-6(7H)-yl)butanamide]
